Measured values taken from patent US9708304B2, “Salt polymorph of thioxanthene-9-ylidene-1-methyl piperidine acid addition salts as antimigraine compounds” (BIOFRONTERA BIOSCIENCE GMBH, priority 2013, dated 2017).
Like-named read-outs stand apart in the source and are kept apart here.

Test: Comparison of solubilities of sample Id 1 and Id 2 in three different solvents
Type: physicochemical
Experimental: It has also been confirmed that sample 2 has a higher solubility than the starting material. The starting HCl salt (sample Id 1) and the salt received from the low temperature evaporation (sample Id 2) were dissolved in 3 solvents with different capacities in solubility, namely methanol, 2-propanol and 96% ethanol (see Table 3 below). The solubility of sample Id 1 and sample Id 2 is shown in the rightmost column of Table 3 in mg/ml.

[1] = solvent 2-Propanol, hydrochloride
[2] = solvent Ethanol 96%, hydrochloride
[3] = solvent Methanol, hydrochloride

In the case of `CCOc1ccc2c(c1)Sc1cccc(OC)c1C2=C1CCN(C)CC1.Cl` [Starting Material, 4-(6-ethoxy-1-methoxy-thioxanthene-9-ylidene)-1-methyl piperidine hydrochloride], the solubility (96% ethanol, organic solvent or mixture, thermodynamic from solid, solvent Ethanol 96%, read-out: Solubility) is reported as 57 mg/mL, the solubility (methanol, organic solvent or mixture, thermodynamic from solid, solvent Methanol, read-out: Solubility) is reported as 156 mg/mL and the “Weight-% (dissolved salt in solution)” value [1] is reported as 0.27%. The solubility [1] was 4 mg/mL, the “Weight-% (dissolved salt in solution)” value [2] was 4.56% and the “Weight-% (dissolved salt in solution)” value [3] was 12.50%.
For `CCOc1ccc2c(c1)Sc1cccc(OC)c1C2=C1CCN(C)CC1.Cl` [Low. temp. evap. MeOH, 4-(6-ethoxy-1-methoxy-thioxanthene-9-ylidene)-1-methyl piperidine hydrochloride], the “Increase in solubility in comparison to the starting material (sample Id 1)” value (2-propanol) was “about 25%”, the solubility (2-propanol, organic solvent or mixture, thermodynamic from solid, solvent 2-Propanol, read-out: Solubility) was 5 mg/mL and the “Increase in solubility in comparison to the starting material (sample Id 1)” value (96% ethanol) was “about 9%”. The “Solubility compared with starting material” value (methanol, 2-propanol and 96% ethanol) was “enhanced solubility in all three solvents tested”, the “Weight-% (dissolved salt in solution)” value [1] was 0.38% and the “Weight-% (dissolved salt in solution)” value [2] was 4.70%. The solubility [2] was 62 mg/mL, the “Weight-% (dissolved salt in solution)” value [3] was 12.92% and the solubility [3] was 171 mg/mL.
